Measured values from article PMC4974627 (Biochemistry, 2016).

Tests used:
[1] = biological target: T1, AtGSNOR (Arabidopsis GSNOR) (Arabidopsis thaliana, UniProt Q96533); experiment: time-dependent loss of activity on GSNO incubation; format: biochemical; conditions: covalent (presumed S-nitrosation); 1 mM GSNO, 20 µM protein
[2] = biological target: AtGSNOR (Arabidopsis GSNOR) (Arabidopsis thaliana, UniProt Q96533, C271A); experiment: intact protein mass spectrometry; format: binding; conditions: covalent (S-nitrosation)
[3] = biological target: AtGSNOR (Arabidopsis GSNOR) (Arabidopsis thaliana, UniProt Q96533, C370A); experiment: intact protein mass spectrometry; format: binding; conditions: covalent (S-nitrosation)
[4] = biological target: T1, AtGSNOR (Arabidopsis GSNOR); experiment: residual GSNO reductase activity after CysNO incubation; format: biochemical; conditions: covalent (S-nitrosation of Cys10, Cys271, Cys370), reversible by DTT; one hour
[5] = biological target: ScSFA1 (yeast GSNOR, Sensitive to Formaldehyde 1) (Saccharomyces cerevisiae, UniProt P32771, C12A); experiment: residual activity after CysNO versus CysSH treatment; format: biochemical; conditions: covalent (S-nitrosation); 2 mM CysNO
Sequence of ScSFA1 (yeast GSNOR, Sensitive to Formaldehyde 1) (P32771 whole entry C12A): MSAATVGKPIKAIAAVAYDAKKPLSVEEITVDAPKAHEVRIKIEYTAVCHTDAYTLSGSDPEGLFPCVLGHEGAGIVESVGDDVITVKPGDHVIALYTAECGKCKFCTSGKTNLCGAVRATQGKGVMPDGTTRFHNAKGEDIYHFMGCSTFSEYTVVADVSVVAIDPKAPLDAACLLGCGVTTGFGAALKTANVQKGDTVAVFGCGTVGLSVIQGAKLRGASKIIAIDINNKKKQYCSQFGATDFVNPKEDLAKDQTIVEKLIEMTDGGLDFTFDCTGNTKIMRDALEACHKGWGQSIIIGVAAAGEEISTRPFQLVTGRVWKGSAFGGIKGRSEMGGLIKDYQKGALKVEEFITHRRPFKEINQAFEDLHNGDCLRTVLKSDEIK

T1 sequence (Q96533 2-379): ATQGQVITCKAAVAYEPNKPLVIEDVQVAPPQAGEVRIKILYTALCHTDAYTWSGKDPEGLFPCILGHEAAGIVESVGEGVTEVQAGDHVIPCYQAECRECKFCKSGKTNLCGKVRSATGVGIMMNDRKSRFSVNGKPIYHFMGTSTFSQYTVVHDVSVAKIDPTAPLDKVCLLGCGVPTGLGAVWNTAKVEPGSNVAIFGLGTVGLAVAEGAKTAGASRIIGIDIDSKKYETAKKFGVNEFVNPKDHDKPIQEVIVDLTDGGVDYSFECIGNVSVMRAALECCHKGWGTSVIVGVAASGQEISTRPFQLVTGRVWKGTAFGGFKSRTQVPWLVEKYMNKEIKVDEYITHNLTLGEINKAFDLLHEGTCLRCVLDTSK
Sequence of AtGSNOR (Arabidopsis GSNOR) (Arabidopsis thaliana, UniProt Q96533, C271A) (Q96533 2-379 C271A): as the sequence (Q96533 2-379) above, with C270A counted along it
Sequence of AtGSNOR (Arabidopsis GSNOR) (Arabidopsis thaliana, UniProt Q96533, C370A) (Q96533 2-379 C370A): as the sequence (Q96533 2-379) above, with C369A counted along it

Q: N[C@@H](CCC(=O)N[C@@H](CSN=O)C(=O)NCC(=O)O)C(=O)O [GSNO] was tested. Which “time-dependent loss of activity on GSNO incubation” value [1] did it give?
A: Incubation with GSNO caused a time-dependent decrease in the specific activity of unmodified AtGSNOR

Q: Which results are given for N[C@@H](CSN=O)C(=O)O [CysNO]?
A: intact protein mass spectrometry (+29 Da adducts) [2]: only two adducts were observed for single cysteine mutants (Fig. 2F, H, J); intact protein mass spectrometry (+29 Da adducts) [3]: only two adducts were observed for single cysteine mutants (Fig. 2F, H, J); % decrease in activity at 125 μM [4]: ~ 40%; residual activity after CysNO versus CysSH treatment [5]: ScSFA1^C12A and HsGSNOR^C8A were as sensitive to nitrosation as their corresponding wild-types
